Assays:
human TRPM8 = human TRPM8 (Homo sapiens (Human), UniProt Q7Z2W7); assay: TRPM8 inhibition assay (menthol-induced calcium influx, FDSS); type: cell-based; details: HEK293 cells stably expressing human TRPM8; 100 μM menthol; Fura-2AM Ca2+ signal; read-out: TRPM8 Blocking Test (IC50)
Experimental: The functional activity of compounds was determined by measuring changes in intracellular calcium concentration using a Ca^2+ sensitive fluorescent dye. The changes in fluorescent signal were monitored by the cell imaging technology by Hamamatsu Photonics's Functional Drug Screening System (FDSS). […] HEK293 cells stably expressing human TRPM8 were grown in flasks. On assay day, the culture medium was removed, and cells were washed with phosphate-buffered saline (PBS) and harvested with PBS containing 2 mM ethylenediaminetetraacetic acid, disodium salt (EDTA, 2Na). […] Subsequently, suspended 20,000 to 50,000 cells per well were incubated with test compound (at varying concentrations) in each well for 20 min at 37° C. Changes in intracellular Ca^2+ evoked by 100 μM menthol were measured for 2 min using FDSS. IC50 vales were determined from four-point concentration-response studies. Curves were generated using the average of quadruplicate wells for each data point.

TRPM8 = TRPM8 (Rattus norvegicus (Rat), UniProt Q8R455); assay: In vivo TRPM8 antagonistic assay in rats (menthol-induced wet-dog shakes); details: SD male rats; 3 mg/kg po 1 hour prior to menthol 50 mg/kg ip; WDS counted for 5 min
Sequence of TRPM8 (Q8R455 whole entry): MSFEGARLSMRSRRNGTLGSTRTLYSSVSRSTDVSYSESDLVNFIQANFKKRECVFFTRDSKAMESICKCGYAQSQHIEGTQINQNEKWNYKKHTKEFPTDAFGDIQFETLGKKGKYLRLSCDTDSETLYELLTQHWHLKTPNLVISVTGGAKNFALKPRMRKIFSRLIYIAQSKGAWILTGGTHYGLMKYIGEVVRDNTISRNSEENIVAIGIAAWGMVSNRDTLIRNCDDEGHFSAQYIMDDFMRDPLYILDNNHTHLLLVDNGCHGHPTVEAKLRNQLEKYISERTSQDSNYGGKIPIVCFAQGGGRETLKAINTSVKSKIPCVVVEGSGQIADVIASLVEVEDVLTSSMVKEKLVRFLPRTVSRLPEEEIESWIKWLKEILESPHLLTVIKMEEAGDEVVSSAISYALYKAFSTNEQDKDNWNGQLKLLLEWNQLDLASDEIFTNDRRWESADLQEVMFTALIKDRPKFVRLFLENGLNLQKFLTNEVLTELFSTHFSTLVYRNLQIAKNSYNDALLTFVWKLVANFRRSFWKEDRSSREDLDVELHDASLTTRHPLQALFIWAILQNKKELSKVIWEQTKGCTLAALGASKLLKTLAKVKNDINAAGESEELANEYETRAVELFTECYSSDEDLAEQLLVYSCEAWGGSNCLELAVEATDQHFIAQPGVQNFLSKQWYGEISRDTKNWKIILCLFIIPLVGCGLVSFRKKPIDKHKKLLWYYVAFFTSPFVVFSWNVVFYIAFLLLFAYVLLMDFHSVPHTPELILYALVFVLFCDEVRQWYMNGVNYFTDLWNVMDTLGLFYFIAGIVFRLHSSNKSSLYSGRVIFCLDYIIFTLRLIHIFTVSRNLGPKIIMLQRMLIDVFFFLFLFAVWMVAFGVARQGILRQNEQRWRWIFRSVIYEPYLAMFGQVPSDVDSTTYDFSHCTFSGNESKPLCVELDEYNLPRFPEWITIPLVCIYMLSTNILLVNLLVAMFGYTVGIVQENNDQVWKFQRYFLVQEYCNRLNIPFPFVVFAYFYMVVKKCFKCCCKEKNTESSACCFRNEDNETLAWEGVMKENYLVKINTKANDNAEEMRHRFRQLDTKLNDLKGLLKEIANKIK
Experimental: The antagonistic activity of compounds was assessed in the “wet-dog” shakes (WDS) model in rats. […] Pretreatment of the rats with a TRPM8 antagonist prior to menthol administration inhibits the observed shaking behavior.
To assess the ability of a TRPM8 antagonist to prevent menthol induced shaking behavior in Sprague Dawley (SD) male rats, test compounds (3 mg/kg, po, in 0.5% methyl cellulose; N=3-4/group) were administered 1 hour prior to menthol challenge (50 mg/kg, ip, in 10% Macrogol 15 Hydroxystearate/saline). Spontaneous WDS were counted for 5 min post menthol dosing. Inhibition of the spontaneous WDS behavior relative to vehicle pretreatment is expressed as percent inhibition, calculated as follows: % Inhibition=[1−(treatment WDS count/vehicle WDS count)]×100.

Sequence of human TRPM8 (Q7Z2W7 whole entry): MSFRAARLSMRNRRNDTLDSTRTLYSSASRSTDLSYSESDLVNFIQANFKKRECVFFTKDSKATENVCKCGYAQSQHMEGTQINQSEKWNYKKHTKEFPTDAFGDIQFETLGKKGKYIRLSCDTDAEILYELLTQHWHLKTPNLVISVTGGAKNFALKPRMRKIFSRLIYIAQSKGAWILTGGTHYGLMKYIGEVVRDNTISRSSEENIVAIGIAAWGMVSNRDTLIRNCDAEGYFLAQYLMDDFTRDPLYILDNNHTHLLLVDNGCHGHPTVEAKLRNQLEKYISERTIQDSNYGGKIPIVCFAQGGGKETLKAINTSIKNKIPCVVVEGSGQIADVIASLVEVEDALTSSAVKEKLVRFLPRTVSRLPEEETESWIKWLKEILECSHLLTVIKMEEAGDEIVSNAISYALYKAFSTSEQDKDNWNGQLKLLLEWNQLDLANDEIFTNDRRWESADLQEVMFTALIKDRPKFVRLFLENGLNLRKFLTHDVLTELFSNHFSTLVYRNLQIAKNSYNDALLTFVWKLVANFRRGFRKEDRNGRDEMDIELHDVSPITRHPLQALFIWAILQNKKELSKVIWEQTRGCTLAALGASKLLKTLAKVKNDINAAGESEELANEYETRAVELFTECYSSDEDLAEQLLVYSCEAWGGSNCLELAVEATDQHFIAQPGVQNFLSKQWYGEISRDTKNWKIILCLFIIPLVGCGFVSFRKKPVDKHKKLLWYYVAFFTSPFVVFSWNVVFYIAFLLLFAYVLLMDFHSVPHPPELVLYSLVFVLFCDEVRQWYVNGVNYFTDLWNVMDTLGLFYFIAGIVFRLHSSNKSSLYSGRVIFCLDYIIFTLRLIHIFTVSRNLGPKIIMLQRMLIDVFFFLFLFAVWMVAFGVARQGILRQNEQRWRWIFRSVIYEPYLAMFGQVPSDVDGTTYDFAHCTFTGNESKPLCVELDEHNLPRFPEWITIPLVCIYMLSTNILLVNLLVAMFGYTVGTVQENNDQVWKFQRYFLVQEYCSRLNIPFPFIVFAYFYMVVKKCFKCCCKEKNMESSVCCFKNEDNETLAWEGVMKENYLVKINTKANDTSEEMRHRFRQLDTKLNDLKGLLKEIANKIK

Structure (SMILES) | IC50 (human TRPM8) [nM] | TRPM8 antagonistic assay (% Inhibition @ 3 mg/kg) (TRPM8) [%]
CC(C)c1c(N(Cc2ccc(OC(F)(F)F)cc2)S(=O)(=O)c2ccc(C(=O)O)cc2)ncc2ccccc12 [Example 227] | 5.6 | 72.5
O=C(O)c1ccc(S(=O)(=O)N(c2ncc3ccccc3c2C2CC2)C2CCc3cc(OC(F)(F)F)ccc32)cc1 (stereo not shown) [Example 186] | 4.3 | 83.5
Cc1c(N(Cc2ccc(C(F)(F)F)cn2)S(=O)(=O)c2ccc(C(=O)O)cc2)ncc2ccccc12 [Example 66] | 38 | –
Cc1c(N(Cc2ccccc2)S(=O)(=O)c2ccc(C(=O)O)cc2)nc(C2CC2)c2ccccc12 [Example 139] | 12 | –
Cc1c(N(Cc2ccc3[nH]cc(Cl)c3c2)S(=O)(=O)c2ccc(C(=O)O)cc2)ncc2ccccc12 [Example 236] | 522 | –
Cc1c(N(Cc2ccc(OC(F)(F)F)cc2)S(=O)(=O)c2ccc(C(=O)O)cc2)ncc2cccc(Cl)c12 [Example 230] | 44 | –
Cc1c(N(Cc2ccc(OC(F)(F)F)cc2)S(=O)(=O)c2ccc(C(=O)O)cc2)nc(C(C)O)c2ccccc12 (stereo not shown) [Example 115, 4-({[1-(1-hydroxyethyl)-4-methylisoquinolin-3-yl][4-(trifluoromethoxy)benzyl]amino}sulfonyl)benzoic acid] | 97 | –
Cc1c(N(Cc2ccc3cc[nH]c3c2)S(=O)(=O)c2ccc(C(=O)O)cc2)ncc2ccccc12 [Example 117, 4-{[(1H-indol-6-ylmethyl)(4-methylisoquinolin-3-yl)amino]sulfonyl}benzoic acid] | 54 | –
Cn1ccc2c(Cl)cnc(N(Cc3ccc(OC(F)(F)F)cc3)S(=O)(=O)c3ccc(C(=O)O)cc3)c21 [Example 6, sodium 4-({(4-chloro-1-methyl-1H-pyrrolo[2,3-c]pyridin-7-yl)[4-(trifluoromethoxy)benzyl]amino}sulfonyl)benzoate] | 22 | –
Cc1c(N(Cc2ccc(C(O)(C(F)(F)F)C(F)(F)F)cc2)S(=O)(=O)c2ccc(C(=O)O)cc2)ncc2ccccc12 [Example 128] | 40 | –
Cc1c(N(Cc2ccc(OC(F)(F)F)cc2)S(=O)(=O)c2ccc(C(=O)O)cc2)nc(C2CC2)c2c(C)cccc12 [Example 215] | 8.2 | –
Cc1c(N(Cc2ccc(OC3CCCC3)cc2)S(=O)(=O)c2ccc(C(=O)O)cc2)ncc2ccccc12 [Example 46] | 17 | –
O=C(O)c1ccc(S(=O)(=O)N(Cc2ccc(OC(F)(F)F)cc2)c2cc3ccccc3cn2)cc1 [Example 156] | 23 | –
Cc1cc2ccccc2nc1N(Cc1ccc(C(F)(F)C2CC2)cc1)S(=O)(=O)c1ccc(C(=O)O)cc1 [Example 182] | 4 | –
CC(C)c1nc(N(Cc2ccc(OC(F)(F)F)cc2)S(=O)(=O)c2ccc(C(=O)O)cc2)c(C(C)C)c2ccccc12 [Example 150] | 48 | –
Cc1c(N(Cc2ccc3c(c2)CCCC3)S(=O)(=O)c2ccc(C(=O)O)cc2)ncc2ccccc12 [Example 56] | 4.7 | –

The remaining compounds from weak to strong by IC50 (human TRPM8), led by results:

IC50 (human TRPM8) [nM] | TRPM8 antagonistic assay (% Inhibition @ 3 mg/kg) (TRPM8) [%] | Structure (SMILES)
601 | – | Cc1c(N(Cc2ccc3cn[nH]c3c2)S(=O)(=O)c2ccc(C(=O)O)cc2)ncc2ccccc12 [Example 178]
287 | – | O=C(O)c1ccc(S(=O)(=O)N(Cc2ccc(OC(F)(F)F)cc2)c2cc3c(Cl)cccc3c(Br)n2)cc1 [Example 148]
155 | – | Cc1nc2cc(CN(c3ncc4ccccc4c3C)S(=O)(=O)c3ccc(C(=O)O)cc3)ccc2s1 [Example 188]
136 | – | Cc1ccc2cnc(N(Cc3ccc(OC(F)(F)F)cc3)S(=O)(=O)c3ccc(C(=O)O)cc3)c(C)c2c1 [Example 135]
94 | – | O=C(O)c1ccc(S(=O)(=O)N(Cc2ccc(OC(F)(F)F)cc2)c2ncc(Cl)c3ccccc23)cc1 [Example 130]
55 | – | Cc1c(N(Cc2ccc(C(C)(O)C(F)(F)F)c(F)c2)S(=O)(=O)c2ccc(C(=O)O)cc2)ncc2ccccc12 (stereo not shown) [Example 169]
44 | – | COc1nc(N(Cc2ccc(OC(F)(F)F)cc2)S(=O)(=O)c2ccc(C(=O)O)cc2)c(C)c2cccc(C)c12 [Example 229]
31 | – | Cc1cccc2c(C)c(N(Cc3ccc(OC(F)(F)F)cc3)S(=O)(=O)c3ccc(C(=O)O)cc3)ncc12 [Example 136]
26 | – | Cc1c(N(Cc2ccc(-c3ccc(F)cc3)cc2)S(=O)(=O)c2ccc(C(=O)O)cc2)ncc2ccccc12 [Example 8, 4-{[[(4′-fluorobiphenyl-4-yl)methyl](4-methylisoquinolin-3-yl)amino]sulfonyl}benzoic acid]
14 | – | CC(=O)c1c(N(Cc2ccc(OC(F)(F)F)cc2)S(=O)(=O)c2ccc(C(=O)O)cc2)ncc2ccccc12 [Example 112, 4-({(4-acetylisoquinolin-3-yl)[4-(trifluoromethoxy)benzyl]amino}sulfonyl)benzoic acid]
12 | – | Cc1c(N(Cc2ccc3c(c2)c(Cl)cn3C)S(=O)(=O)c2ccc(C(=O)O)cc2)ncc2ccccc12 [Example 237]
9.6 | – | Cc1cc2ccccc2nc1N(Cc1ccc(F)c(C(F)(F)C2CC2)c1)S(=O)(=O)c1ccc(C(=O)O)cc1 [Example 208]
8.6 | – | Cc1c(N(Cc2ccc3ccccc3c2)S(=O)(=O)c2ccc(C(=O)O)cc2)ncc2ccccc12 [Example 32]
8.1 | – | Cc1c(N(Cc2ccc3c(c2)CCC3)S(=O)(=O)c2ccc(C(=O)O)cc2)ncc2ccccc12 [Example 60]
7.1 | – | Cc1c(N(Cc2ccc(CC3CC3)cc2F)S(=O)(=O)c2ccc(C(=O)O)cc2)ncc2ccccc12 [Example 171]
4.7 | – | COC(C)(c1ccc(CN(c2ncc3ccccc3c2C)S(=O)(=O)c2ccc(C(=O)O)cc2)cc1)C(F)(F)F (stereo not shown) [Example 96]
3.9 | 98.8 | COc1c(N(Cc2ccc(OC(F)(F)F)cc2)S(=O)(=O)c2ccc(C(=O)O)cc2)ncc2ccccc12 [Example 149]
2.8 | – | Cc1c(N(Cc2ccc(OC(F)(F)F)cc2)S(=O)(=O)c2ccc(C(=O)O)cc2)nc(C(C)C)c2ccccc12 [Example 225]
2 | 92.7 | O=C(O)c1ccc(S(=O)(=O)N(Cc2ccc(OC(F)(F)F)cc2)c2ncc3ccccc3c2C(F)(F)F)cc1 [Example 106, 4-({[4-(trifluoromethoxy)benzyl][4-(trifluoromethyl)isoquinolin-3-yl]amino}sulfonyl)benzoic acid]
0.9 | – | O=C(O)c1ccc(S(=O)(=O)N(Cc2ccc(OC(F)(F)F)cc2)c2ncc3ccccc3c2C2CC2)cc1 [Example 104, 4-({(4-cyclopropylisoquinolin-3-yl)[4-(trifluoromethoxy)benzyl]amino}sulfonyl)benzoic acid]

From US8987445B2, “Sulfonamide compounds having TRPM8 antagonistic activity” (Mitsubishi Tanabe Pharma Corporation, priority 2011, dated 2015)
